Measured values from the supplement of paper PMC6045584.
± gives the standard deviation of the averaged measurements.

Assays:
[1] = compound: T1, CN(C)C/C=C/C(=O)Nc1cc2c(Nc3ccc(F)c(Cl)c3)ncnc2cc1O[C@H]1CCOC1 [AFATINIB]; assay: surviving fraction relative to DMSO-only wells; higher = less growth inhibition; settings: exposure time: 5 days
Procedure, shortened: (§1)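 In 384-well plates, 250–500 log-phase tumour cells per well were given 24 hours before five days of continuous exposure to inhibitors at 0.5, 1, 5, 10, 50, 100, 500 and 1000 nM. Surviving fraction is luminescence from CellTiter-Glo, normalised to the median of wells containing DMSO alone. Reading took place after 10 minutes at room temperature.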

[2] = compound: Cn1cc(C2=Nc3cc(NC(=O)C(N)C4CCCCC4)cc4c3C2=CNNC4=O)cn1; assay: as above; settings: exposure time: 5 days
Procedure, shortened: as §1

[3] = compound: CC1(C)CC(=O)c2c(C(F)(F)F)nn(-c3ccc(C(N)=O)c(N[C@H]4CC[C@H](OC(=O)CN)CC4)c3)c2C1 [SNX-5422]; assay: area under dose-response curve of surviving fraction (unscaled, Aref=0) (surviving fraction x log10(nM)); higher = more resistant; settings: exposure time: 5 days; dose range 0.5-1000 nM
Procedure, shortened: (§2)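 Tumour cell lines in 384-well plates were exposed for five days to eight inhibitor concentrations from 0.5 to 1000 nM. Viability was read by CellTiter-Glo luminescence, normalised to DMSO-only wells, in three screens per line. Dose-response survival curves were fitted to surviving fractions by 3-parameter logistic regression in the drc R package. Area under the curve is the unscaled activity area (Aref = 0) over log10 dose.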

[4] = compound: CCCCCCCCCCCCCCCC(=O)Nc1ccn([C@@H]2O[C@H](CO)[C@@H](O)[C@@H]2C#N)c(=O)n1 [SAPACITABINE]; assay: as above; settings: exposure time: 5 days; dose range 0.5-1000 nM
Procedure, shortened: as §2

[5] = compound: T1, AFATINIB; assay: as above; settings: exposure time: 5 days; dose range 0.5-1000 nM
Procedure, shortened: as §2

[6] = compound: Cn1cc(C2=Nc3cc(NC(=O)C(N)C4CCCCC4)cc4c3C2=CNNC4=O)cn1; assay: as above; settings: exposure time: 5 days; dose range 0.5-1000 nM
Procedure, shortened: as §2

Row | Test System | surviving fraction ([1]; 0.5 nM) | surviving fraction ([1]; 1 nM) | surviving fraction ([1]; 5 nM) | surviving fraction ([1]; 10 nM) | surviving fraction ([1]; 50 nM) | surviving fraction ([1]; 100 nM) | surviving fraction ([1]; 500 nM) | surviving fraction ([1]; 1000 nM) | surviving fraction ([2]; 0.5 nM) | surviving fraction ([2]; 1 nM) | surviving fraction ([2]; 5 nM) | surviving fraction ([2]; 10 nM) | surviving fraction ([2]; 50 nM) | surviving fraction ([2]; 100 nM) | surviving fraction ([2]; 500 nM) | surviving fraction ([2]; 1000 nM) | area under dose-response curve [3] | area under dose-response curve [4] | area under dose-response curve [5] | area under dose-response curve [6]
1 | MG63 BONE | 1.02 ± 0.046 | 1.03 ± 0.023 | 1.08 ± 0.022 | 1.058 ± 0.0069 | 1.05 ± 0.059 | 1.08 ± 0.017 | 0.951 ± 0.04 | 0.831 ± 0.038 | 0.99 ± 0.033 | 1.02 ± 0.021 | 1.03 ± 0.024 | 1.05 ± 0.047 | 1.02 ± 0.058 | 0.822 ± 0.0046 | 0.0643 ± 0.0084 | 0.101 ± 0.011 | 2.18 | 2.19 | 3.27 | 2.46
2 | JIMT1 BREAST | 0.987 ± 0.023 | 0.994 ± 0.029 | 0.96 ± 0.015 | 0.909 ± 0.044 | 0.732 ± 0.028 | 0.687 ± 0.049 | 0.603 ± 0.012 | 0.301 ± 0.014 | 0.921 ± 0.046 | 0.941 ± 0.051 | 0.911 ± 0.023 | 0.9362 ± 0.0086 | 0.874 ± 0.037 | 0.927 ± 0.042 | 0.803 ± 0.011 | 0.424 ± 0.025 | 2.23 | 2.84 | 2.62 | 2.96
3 | BT549 BREAST | 1.08 ± 0.1 | 1.12 ± 0.072 | 1.11 ± 0.11 | 1.07 ± 0.2 | 0.919 ± 0.15 | 1.09 ± 0.066 | 0.696 ± 0.15 | 0.278 ± 0.082 | 1.07 ± 0.11 | 0.943 ± 0.079 | 0.957 ± 0.21 | 1.05 ± 0.14 | 0.659 ± 0.073 | 0.371 ± 0.012 | 0.0533 ± 0.008 | 0.027 ± 0.006 | 1.94 | 1.85 | 3.09 | 2.19
4 | HMLE3 BREAST | 0.989 ± 0.042 | 1.02 ± 0.034 | 0.993 ± 0.054 | 0.904 ± 0.074 | 0.905 ± 0.035 | 0.946 ± 0.04 | 0.842 ± 0.087 | 0.77 ± 0.021 | 1.02 ± 0.013 | 0.984 ± 0.069 | 1.01 ± 0.069 | 1.05 ± 0.1 | 0.928 ± 0.015 | 0.924 ± 0.05 | 0.319 ± 0.049 | 0.0807 ± 0.0095 | 1.89 | 2.03 | 3.07 | 2.79
5 | SG43 HEADNECK | 1.03 ± 0.33 | 0.966 ± 0.27 | 0.362 ± 0.022 | 0.414 ± 0.18 | 0.301 ± 0.11 | 0.181 ± 0.044 | 0.182 ± 0.046 | 0.0613 ± 0.035 | 1.08 ± 0.17 | 0.969 ± 0.1 | 0.929 ± 0.19 | 1.01 ± 0.37 | 1.11 ± 0.21 | 1.06 ± 0.15 | 0.888 ± 0.098 | 0.968 ± 0.097 | 1.7 | 3.5 | 1.3 | 3.31
6 | HELA CERVIX | 1.08 ± 0.041 | 1.09 ± 0.049 | 1.06 ± 0.082 | 1.02 ± 0.022 | 1.19 ± 0.028 | 1.2 ± 0.018 | 1.22 ± 0.075 | 1.1 ± 0.045 | 1.1 ± 0.028 | 1.1 ± 0.059 | 1.11 ± 0.045 | 1.01 ± 0.013 | 1.11 ± 0.082 | 1.15 ± 0.035 | 1.15 ± 0.038 | 1.09 ± 0.046 | 2.79 | 2.94 | 3.69 | 3.79
7 | SG27 HEADNECK | 1 ± 0.09 | 0.981 ± 0.035 | 1.04 ± 0.041 | 1 ± 0.14 | 0.883 ± 0.012 | 0.966 ± 0.13 | 0.865 ± 0.093 | 0.831 ± 0.068 | 1.11 ± 0.17 | 0.979 ± 0.096 | 0.898 ± 0.059 | 1.01 ± 0.022 | 0.904 ± 0.12 | 0.917 ± 0.18 | 0.895 ± 0.042 | 0.839 ± 0.035 | 2.78 | – | 3.13 | 3.1
